Experimental data from the supplement of paper PMC10307832.

Experiments:
Assay in all cases: relative viability (nuclei count vs DMSO), 5 days (fraction); higher = more cells survive
Quizartinib + AZD7762 = compound: CC(C)(C)c1cc(NC(=O)Nc2ccc(-c3cn4c(n3)sc3cc(OCCN5CCOCC5)ccc34)cc2)no1 [Quizartinib] + NC(=O)Nc1cc(-c2cccc(F)c2)sc1C(=O)N[C@H]1CCCNC1 [AZD7762] (partner 0.2 µM)
In short: (§1)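 Relative viability is defined as nuclei in treated wells over nuclei in vehicle wells. Duplicate plates were run and medians reported. Lung cancer cell lines in 1536-well plates were dosed by pin tool one day after seeding, with one drug or with a fixed anchor-drug dose plus five library-drug doses (not always all listed) in √10 steps, and nuclei were counted after 5 days.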

YM155 + Crizotinib = compound: COCC[n+]1c2c(n(Cc3cnccn3)c1C)C(=O)c1ccccc1C2=O [YM155] + C[C@@H](Oc1cc(-c2cnn(C3CCNCC3)c2)cnc1N)c1c(Cl)ccc(F)c1Cl [Crizotinib] (partner 1 µM)
In short: as §1

YM155 + Decitabine = compound: COCC[n+]1c2c(n(Cc3cnccn3)c1C)C(=O)c1ccccc1C2=O [YM155] + Nc1ncn([C@H]2C[C@H](O)[C@@H](CO)O2)c(=O)n1 [Decitabine] (partner 2 µM)
In short: as §1

[1] = compound: CC(C)(C)c1cc(NC(=O)Nc2ccc(-c3cn4c(n3)sc3cc(OCCN5CCOCC5)ccc34)cc2)no1 [Quizartinib] + CC(=O)c1c(C)c2cnc(Nc3ccc(N4CCNCC4)cn3)nc2n(C2CCCC2)c1=O [Palbociclib] (partner 0.5 µM)
In short: as §1

Row | Cell Line | relative viability (Quizartinib + AZD7762; first compound 0.001 µM) | relative viability (Quizartinib + AZD7762; first compound 0.003162 µM) | relative viability (Quizartinib + AZD7762; first compound 0.01 µM) | relative viability (Quizartinib + AZD7762; first compound 0.03162 µM) | relative viability (Quizartinib + AZD7762; first compound 0.1 µM) | relative viability (YM155 + Crizotinib; first compound 0.002 µM) | relative viability (YM155 + Crizotinib; first compound 0.006325 µM) | relative viability (YM155 + Crizotinib; first compound 0.02 µM) | relative viability (YM155 + Crizotinib; first compound 0.06325 µM) | relative viability (YM155 + Decitabine; first compound 0.002 µM) | relative viability (YM155 + Decitabine; first compound 0.006325 µM) | relative viability (YM155 + Decitabine; first compound 0.02 µM) | relative viability (YM155 + Decitabine; first compound 0.06325 µM) | relative viability ([1]; first compound 0.001 µM) | relative viability ([1]; first compound 0.003162 µM) | relative viability ([1]; first compound 0.01 µM) | relative viability ([1]; first compound 0.03162 µM) | relative viability ([1]; first compound 0.1 µM)
1 | RERF-LC-KJ | 0.898 | 0.954 | 0.945 | 0.98 | 0.987 | 0.775 | 0.761 | 0.868 | 0.766 | 0.649 | 0.644 | 0.787 | 0.737 | 1.05 | 1.05 | 1.17 | 0.984 | 1.02
2 | NCI-H1944 | 0.493 | 0.414 | 0.48 | 0.57 | 0.527 | 1.07 | 0.916 | 1.2 | 1.27 | 0.416 | 0.395 | 0.415 | 0.453 | 0.345 | 0.306 | 0.293 | 0.35 | 0.294
3 | ChaGo-K-1 |  | 0.841 | 0.981 | 0.84 | 0.932 | 1.1 | 1.06 | 1.17 | 0.784 | 0.473 | 0.563 | 0.515 | 0.545 |  | 0.922 | 0.918 | 0.949 | 0.904
4 | NCI-H1734 | 0.736 | 0.54 | 0.603 | 0.522 | 0.628 | 0.646 | 0.662 | 0.766 | 0.675 | 0.474 | 0.525 | 0.468 | 0.446 | 0.277 | 0.338 | 0.349 | 0.341 | 0.347
